Data reported in ChEMBL document CHEMBL1201862, “PubChem BioAssay data set” (2004).
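Protocol summary: plate cells (96-well), add compound at 5 concentrations, incubate 48 h, interpolate endpoints linearly. The concentration for 50% growth inhibition is given as GI50.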 Calls of active or inactive are those of the source. Rule as the data show it: active = GI50 up to about 1.1 µM and inactive = higher.

How the values were obtained:
Experiment in all cases: NCI anticancer screen, dose series, 48 h
786-0 = system: 786-0
A549 = system: A549
ACHN = system: ACHN
BT-549 = system: BT-549
CAKI-1 = system: CAKI-1
CCRF-CEM = system: CCRF-CEM
COLO 205 = system: COLO 205
DU-145 = system: DU-145
EKVX = system: EKVX
HCC 2998 = system: HCC 2998
HCT-116 = system: HCT-116
HCT-15 = system: HCT-15
HL-60 = system: HL-60
HOP-62 = system: HOP-62
HOP-92 = system: HOP-92
HT-29 = system: HT-29
Hs-578T = system: Hs-578T
IGROV-1 = system: IGROV-1
K562 = system: K562
KM12 = system: KM12
LOX IMVI = system: LOX IMVI
M14 = system: M14
MCF7 = system: MCF7
MDA-MB-231 = system: MDA-MB-231
MDA-MB-435 = system: MDA-MB-435
MDA-N = system: MDA-N
MOLT-4 = system: MOLT-4
Malme-3M = system: Malme-3M
NCI-H23 = system: NCI-H23
NCI-H460 = system: NCI-H460
NCI-H522 = system: NCI-H522
NCI/ADR-RES = system: NCI/ADR-RES
OVCAR-3 = system: OVCAR-3
OVCAR-4 = system: OVCAR-4
OVCAR-8 = system: OVCAR-8
PC-3 = system: PC-3
RPMI-8226 = system: RPMI-8226
RXF 393 = system: RXF 393
SF-268 = system: SF-268
SF-295 = system: SF-295
SF-539 = system: SF-539
SK-MEL-28 = system: SK-MEL-28
SK-MEL-2 = system: SK-MEL-2
SK-MEL-5 = system: SK-MEL-5
SK-OV-3 = system: SK-OV-3
SN12C = system: SN12C
SNB-19 = system: SNB-19
SNB-75 = system: SNB-75
SR = system: SR
SW-620 = system: SW-620
T47D = system: T47D
TK-10 = system: TK-10
U-251 = system: U-251
UACC-257 = system: UACC-257
UACC-62 = system: UACC-62
UO-31 = system: UO-31

Measured: GI50

O=c1oc2c(ccc3ccccc32)cc1C1=CSC2=NCCN12
38.4 µM: HCT-15
inactive: 786-0 38.7 µM | A549 27.1 µM | ACHN 35.2 µM | BT-549 26.2 µM | CAKI-1 75.5 µM | CCRF-CEM 30.5 µM | COLO 205 50 µM | DU-145 26.5 µM | EKVX 25.5 µM | HCC 2998 3.82 µM | HCT-116 32.4 µM | HL-60 34.7 µM | HOP-62 35.8 µM | HOP-92 24.4 µM | HT-29 45.3 µM | Hs-578T 73.1 µM | IGROV-1 32.7 µM | K562 33.4 µM | KM12 55.5 µM | LOX IMVI 49.7 µM | M14 50.2 µM | MCF7 21.8 µM | MDA-MB-231 38.3 µM | MDA-MB-435 53.3 µM | MDA-N 51.6 µM | MOLT-4 34.2 µM | Malme-3M 58.6 µM | NCI-H23 53.8 µM | NCI-H460 36.7 µM | NCI-H522 30.3 µM | NCI/ADR-RES 75.2 µM | OVCAR-3 31.6 µM | OVCAR-4 44.5 µM | OVCAR-8 54.7 µM | PC-3 71.4 µM | RPMI-8226 42.6 µM | RXF 393 33.5 µM | SF-268 57.9 µM | SF-295 33 µM | SF-539 69.7 µM | SK-MEL-28 35.2 µM | SK-MEL-2 > 100 µM | SK-MEL-5 46.3 µM | SK-OV-3 67.3 µM | SN12C 42.4 µM | SNB-19 38.6 µM | SNB-75 > 100 µM | SR 34.4 µM | SW-620 29.7 µM | T47D 30.5 µM | TK-10 49.3 µM | U-251 59.8 µM | UACC-257 56.1 µM | UACC-62 > 100 µM | UO-31 23.3 µM
